PubChem BioAssay AID1259407 (Chemical Carcinogenesis Research Information System (CCRIS), 2018)
Activity calls are given as the source filed them. How the calls were made is not given here.

Test system: CCRIS mutagenicity, Ames/micronucleus/aberration tests
Experiment: CCRIS mutagenicity studies

SMILES: Cn1c(N)nc2c3cccnc3ccc21
- mutagenic call (End Point: IN VIVO MICRONUCLEUS, Test System: BONE MARROW POLYCHROMATIC ERYTHROCYTES, Species: MOUSE, Strain/Sex: BALB/C/MALE, Route: IP INJECTION): inactive; negative
- mutagenic call (Test System: AMES SALMONELLA TYPHIMURIUM, Strain/Indicator: RAT, LIVER, MICROSOMES, Metabolic Activation: TA98, Method: PREINCUBATION): active; positive
- mutagenic call (Test System: AMES SALMONELLA TYPHIMURIUM, Strain/Indicator: RAT, LIVER, S-9, Metabolic Activation: TA98, Method: PREINCUBATION): active; positive
- mutagenic call (Test System: AMES SALMONELLA TYPHIMURIUM, Strain/Indicator: TA98 (1,8-DNP6), Metabolic Activation: RAT, LIVER, S-9, AROCLOR, Method: PREINCUBATION): inactive; negative
- mutagenic call (Test System: AMES SALMONELLA TYPHIMURIUM, Strain/Indicator: TA98(1,8-DNP6), Metabolic Activation: RAT, LIVER, S-9, Method: STANDARD PLATE): inactive; negative
- mutagenic call (Test System: AMES SALMONELLA TYPHIMURIUM, Strain/Indicator: TA98, Metabolic Activation: CYNOMOLGUS MONKEY, LIVER, MICROSOMES, Method: PREINCUBATION): active; positive
- mutagenic call (Test System: AMES SALMONELLA TYPHIMURIUM, Strain/Indicator: TA98, Metabolic Activation: CYNOMOLOGUS MONKEY, LIVER, MICROSOMES, 2,3,7,8-TETRACHLORODIBENZO-P-DIOXIN, Method: PREINCUBATION): active; positive
- mutagenic call (Test System: AMES SALMONELLA TYPHIMURIUM, Strain/Indicator: TA98, Metabolic Activation: CYNOMOLOGUS MONKEY, LIVER, MICROSOMES, 2-AMINO-3-METHYLIMIDAZO[4,5-F]QUINOLINE, Method: PREINCUBATION): active; positive
- mutagenic call (Test System: AMES SALMONELLA TYPHIMURIUM, Strain/Indicator: TA98, Metabolic Activation: CYNOMOLOGUS MONKEY, LIVER, MICROSOMES, RIFAMPICIN, Method: PREINCUBATION): active; positive
- mutagenic call (Test System: AMES SALMONELLA TYPHIMURIUM, Strain/Indicator: TA98, Metabolic Activation: HAMSTER, LIVER, S-9, AROCLOR 1254, Method: PREINCUBATION): active; positive
- mutagenic call (Test System: AMES SALMONELLA TYPHIMURIUM, Strain/Indicator: TA98, Metabolic Activation: HAMSTER, LIVER, S-9, Method: PREINCUBATION): active; positive
- mutagenic call (Test System: AMES SALMONELLA TYPHIMURIUM, Strain/Indicator: TA98, Metabolic Activation: HUMAN, BLOOD, CYTOSOL, Method: PREINCUBATION): active; positive
- mutagenic call (Test System: AMES SALMONELLA TYPHIMURIUM, Strain/Indicator: TA98, Metabolic Activation: HUMAN, LIVER, MICROSOMES, Method: PREINCUBATION): active; positive
- mutagenic call (Test System: AMES SALMONELLA TYPHIMURIUM, Strain/Indicator: TA98, Metabolic Activation: MONKEY, LIVER, MICROSOMES, Method: PREINCUBATION): active; positive
- mutagenic call (Test System: AMES SALMONELLA TYPHIMURIUM, Strain/Indicator: TA98, Metabolic Activation: MONKEY, LIVER, S-9, Method: PREINCUBATION): active; positive
- mutagenic call (Test System: AMES SALMONELLA TYPHIMURIUM, Strain/Indicator: TA98, Metabolic Activation: MOUSE, LIVER, HEPATOCYTES): active; positive
- mutagenic call (Test System: AMES SALMONELLA TYPHIMURIUM, Strain/Indicator: TA98, Metabolic Activation: MOUSE, LIVER, HEPATOCYTES, 2,3,7,8-TETRACHLORODIBENZO-P-DIOXIN): active; positive
- mutagenic call (Test System: AMES SALMONELLA TYPHIMURIUM, Strain/Indicator: TA98, Metabolic Activation: MOUSE, LIVER, MICROSOMES): active; positive
- mutagenic call (Test System: AMES SALMONELLA TYPHIMURIUM, Strain/Indicator: TA98, Metabolic Activation: MOUSE, LIVER, MICROSOMES, 2,3,7,8-TETRACHLORODIBENZO-P-DIOXIN): active; positive
- mutagenic call (Test System: AMES SALMONELLA TYPHIMURIUM, Strain/Indicator: TA98, Metabolic Activation: MOUSE, LIVER, MICROSOMES, TCDD, Method: STANDARD PLATE): active; positive
- mutagenic call (Test System: AMES SALMONELLA TYPHIMURIUM, Strain/Indicator: TA98, Metabolic Activation: MOUSE, LIVER, MICROSOMES, Method: STANDARD PLATE): active; positive
- mutagenic call (Test System: AMES SALMONELLA TYPHIMURIUM, Strain/Indicator: TA98, Metabolic Activation: MOUSE, LIVER, S-9, Method: PREINCUBATION): active; positive
- mutagenic call (Test System: AMES SALMONELLA TYPHIMURIUM, Strain/Indicator: TA98, Metabolic Activation: NONE, Method: PREINCUBATION): inactive; negative
- mutagenic call (Test System: AMES SALMONELLA TYPHIMURIUM, Strain/Indicator: TA98, Metabolic Activation: NONE, Method: STANDARD PLATE): inactive; negative
- mutagenic call (Test System: AMES SALMONELLA TYPHIMURIUM, Strain/Indicator: TA98, Metabolic Activation: PATAS MONKEY, LIVER, MICROSOMES, Method: PREINCUBATION): active; positive
- mutagenic call (Test System: AMES SALMONELLA TYPHIMURIUM, Strain/Indicator: TA98, Metabolic Activation: RAT LIVER, CYTOSOL, AROCLOR 1254, Method: STANDARD PLATE): inactive; negative
